Assay type in all cases: biochemical
Data set [1] has as its target T1, Native Aequorin (Aequorea victoria, UniProt P02592).
T1 construct: His tag (from the vector name piP-His-HE); made in house
T1 sequence (P02592 9-196 limits assumed): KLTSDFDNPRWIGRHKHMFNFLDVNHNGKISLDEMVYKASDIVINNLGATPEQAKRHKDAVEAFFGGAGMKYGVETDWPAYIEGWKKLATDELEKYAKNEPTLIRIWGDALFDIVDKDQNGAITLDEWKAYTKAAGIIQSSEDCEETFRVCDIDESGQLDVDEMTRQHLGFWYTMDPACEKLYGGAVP
The data set can be described thus: Substrate specificity: semi-synthetic aequorin from coelenterazine analogue and purified apoaequorin. Conditions: for Luminescence Intensity for 60 Secs: CTZ = 100; for Relative Luminescence Intensity: CTZ = 100, 50 mM calcium solution. As to the method: (§1) AM20 was prepared to examine the properties. Specifically, 1 ml of 30 mM Tris-HCl (pH 7.6) containing 10 mM EDTA was mixed with 2-mercaptoethanol (1 μl) and a solution of the coelenterazine analogue (1 μg/μl) dissolved in ethanol. Then, 10 μl of the purified apoaequorin or recombinant mutant apoaequorin AM20 was added to the mixture, which was allowed to stand on ice (4° C.) for 5 hours to perform the regeneration reaction. […] The half decay time was determined from the luminescence patterns.

For data set [2], the target named is T2, Mutant Aequorin AM20 (Aequorea victoria, UniProt P02592, H34Q/K37A/N33D/S39T/V32K).
T2 construct: OmpA secretory signal peptide (N); histidine tag (N); made in house; host or cells: Escherichia coli strain WA802
T2 sequence (P02592 9-196 V32K/N33D/H34Q/K37A/S39T): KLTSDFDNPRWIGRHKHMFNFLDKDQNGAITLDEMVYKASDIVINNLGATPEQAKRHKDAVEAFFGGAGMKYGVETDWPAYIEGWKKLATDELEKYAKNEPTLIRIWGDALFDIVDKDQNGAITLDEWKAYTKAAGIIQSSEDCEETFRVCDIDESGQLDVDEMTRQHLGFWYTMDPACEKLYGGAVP
Conditions: for Half Decay Time / Luminescence Intensity for 60 Secs / Relative Luminescence Intensity: Mutant Aequorin AM20; for Luminescence Intensity for 60 Secs / Relative Luminescence Intensity: CTZ = 100; for Relative Luminescence Intensity: 50 mM calcium solution; for half decay time of the luminescence of the semi-synthetic aequorin: analogue as light-emitting substrate, statement in words. As to the method: as §1

Data set [3] can be described thus: Luminescence activity and half decay time of mutant aequorins regenerated from E. coli extracts. The following applies: E. coli JM83 extract regenerated with coelenterazine, final calcium 25 mM. The protocol:
To express in Escherichia coli the mutant apoaequorin expression vector having the replaced other EF hand loop sequence which was constructed in (2) above, the mutant apoaequorin expression vector was transfected to Escherichia coli JM83 in a conventional manner. The transformants obtained were inoculated into 10 ml of LB liquid medium (10 g of bacto-tryptone, 5 g of yeast extract and 5 g of sodium chloride, per liter of water, pH 7.2) containing ampicillin (50 μg/ml) and cultured at 37° C. for 18 hours. […] Subsequently, 2-mercaptoethanol (1 μl) (manufactured by Wako Pure Chemical Industry) and a solution of substrate coelenterazine in ethanol (1 μg/μl) (JNC Corporation, hereinafter the same) were mixed with the recombinant mutant apoaequorin extract. The mixture was allowed to stand on ice (4° C.) for 18 hours thereby to regenerate into the mutant aequorin. […] The final calcium level in the reaction solution was 25 mM. The luminescence activity was expressed by relative activity (%) to the maximum intensity (Imax).

Some results are limits rather than exact numbers.

Turning to `O=c1c(Cc2cccc(O)c2)nc2c(Cc3ccccc3)[nH]c(-c3ccc(O)cc3)cn1-2` [3iso-CTZ, 3iso-coelenterazine], in data set [1], the “Half Decay Time” value is 0.24 s, the “Luminescence Intensity for 60 Secs” value worked out at 13.4% and the “Relative Luminescence Intensity” value is recorded as 51.6%. In data set [2], the “Half Decay Time” value amounted to 0.66 s, the “Luminescence Intensity for 60 Secs” value was 9.2% and the “Relative Luminescence Intensity” value came to 224%.
`Cc1cccc(Cc2nc3c(Cc4ccccc4)[nH]c(-c4ccc(O)cc4)cn-3c2=O)c1` [3me-CTZ, 3me-coelenterazine]: in data set [1], the “Half Decay Time” value came out at 0.51 s, the “Luminescence Intensity for 60 Secs” value is given as 21.2% and the “Relative Luminescence Intensity” value turned out to be 35.0%. Moreover, in data set [2], the “Half Decay Time” value turned out to be 3.69 s, the “Luminescence Intensity for 60 Secs” value came to 35.5% and the “Relative Luminescence Intensity” value amounted to 125%.
On to `COc1cccc(Cc2nc3c(Cc4ccccc4)[nH]c(-c4ccc(O)cc4)cn-3c2=O)c1` [3meo-CTZ, 3meo-coelenterazine], for which, in data set [1], the “Half Decay Time” value is 0.52 s, the “Luminescence Intensity for 60 Secs” value came to 35.6% and the “Relative Luminescence Intensity” value was determined as 64.9%. Also, in data set [2], the “Half Decay Time” value came out at 1.43 s, the “Luminescence Intensity for 60 Secs” value was determined as 25.0% and the “Relative Luminescence Intensity” value was found to be 266%.
With `Oc1ccc(Cc2nc3c(Cc4ccccc4)nc(-c4ccc(O)cc4)cn3c2O)cc1` [CTZ, coelenterazine], in data set [1], the “Half Decay Time” value was determined as 0.81 s, the “Luminescence Intensity for 60 Secs” value is given as 100% and the “Relative Luminescence Intensity” value turned out to be 100%. In data set [2], the “Half Decay Time” value was found to be 14.12 s, the “Luminescence Intensity for 60 Secs” value was 100% and the “Relative Luminescence Intensity” value was 100%.
Regarding `O=c1c(Cc2ccc(C(F)(F)F)cc2)nc2c(Cc3ccccc3)[nH]c(-c3ccc(O)cc3)cn1-2` [cf3-CTZ, cf3-coelenterazine], in data set [1], the “Half Decay Time” value is 5.95 s, the “Luminescence Intensity for 60 Secs” value came out at 48.6% and the “Relative Luminescence Intensity” value amounted to 6.3%. For the same molecule, in data set [2], the “Half Decay Time” value was over 60 s, the “Luminescence Intensity for 60 Secs” value came to 18.6%, the “Relative Luminescence Intensity” value worked out at 7.5% and the “half decay time of the luminescence of the semi-synthetic aequorin” value is given as “extremely prolonged”.
`Oc1ccc(-c2cn3c(O)c(Cc4ccccc4)nc3c(Cc3ccccc3)n2)cc1` [h-CTZ, h-coelenterazine]: in data set [1], the “Half Decay Time” value stood at 0.69 s, the “Luminescence Intensity for 60 Secs” value came to 70.1% and the “Relative Luminescence Intensity” value turned out to be 87.9%. In data set [2], the “Half Decay Time” value came out at 2.98 s, the “Luminescence Intensity for 60 Secs” value is 45.4% and the “Relative Luminescence Intensity” value worked out at 220%.
`O=c1c(Cc2ccccc2)nc2c(CC3CCCC3)[nH]c(-c3ccc(O)cc3)cn1-2` [hcp-CTZ, hcp-coelenterazine]: in data set [1], the “Half Decay Time” value is 0.51 s, the “Luminescence Intensity for 60 Secs” value was found to be 14.3% and the “Relative Luminescence Intensity” value worked out at 20.5%. Also, in data set [2], the “Half Decay Time” value came out at 0.61 s, the “Luminescence Intensity for 60 Secs” value is reported as 7.6% and the “Relative Luminescence Intensity” value is recorded as 187%.
For the molecule `Cc1ccc(Cc2nc3c(Cc4ccccc4)[nH]c(-c4ccc(O)cc4)cn-3c2=O)cc1` [me-CTZ, me-coelenterazine], in data set [1], the “Half Decay Time” value worked out at 5.00 s, the “Luminescence Intensity for 60 Secs” value turned out to be 45.0% and the “Relative Luminescence Intensity” value was 5.8%. Further, in data set [2], the “Half Decay Time” value was over 60 s, the “Luminescence Intensity for 60 Secs” value is given as 15.4%, the “Relative Luminescence Intensity” value is given as 6.8% and the “half decay time of the luminescence of the semi-synthetic aequorin” value is recorded as “extremely prolonged”.
For `COc1ccc(Cc2nc3c(Cc4ccccc4)[nH]c(-c4ccc(O)cc4)cn-3c2=O)cc1` [meo-CTZ, meo-coelenterazine], in data set [1], the “Half Decay Time” value came to 1.63 s, the “Luminescence Intensity for 60 Secs” value amounted to 60.1% and the “Relative Luminescence Intensity” value is given as 22.3%. Besides, in data set [2], the “Half Decay Time” value turned out to be 18.35 s, the “Luminescence Intensity for 60 Secs” value is 35.6%, the “Relative Luminescence Intensity” value turned out to be 26.6% and the “half decay time of the luminescence of the semi-synthetic aequorin” value is given as “extremely prolonged”.
For the molecule Bis-coelenterazine [Bis-CTZ], in data set [1], the “Luminescence Intensity for 60 Secs” value amounted to 0.0% and the “Relative Luminescence Intensity” value came out at 0.0%. For the same molecule, in data set [2], the “Luminescence Intensity for 60 Secs” value is 0.0% and the “Relative Luminescence Intensity” value was found to be 0.0%.
Take ameh-coelenterazine [αmeh-CTZ]: in data set [1], the “Half Decay Time” value was 0.35 s, the “Luminescence Intensity for 60 Secs” value is recorded as 0.9% and the “Relative Luminescence Intensity” value was found to be 2.2%. For the same molecule, in data set [2], the “Half Decay Time” value was determined as 0.61 s, the “Luminescence Intensity for 60 Secs” value was 0.9% and the “Relative Luminescence Intensity” value amounted to 19.4%.
With et-coelenterazine [et-CTZ], in data set [1], the “Half Decay Time” value was determined as 1.21 s, the “Luminescence Intensity for 60 Secs” value turned out to be 44.1% and the “Relative Luminescence Intensity” value was 27.3%. Further, in data set [2], the “Half Decay Time” value turned out to be 1.94 s, the “Luminescence Intensity for 60 Secs” value worked out at 33.6% and the “Relative Luminescence Intensity” value is listed as 56.7%.
With i-coelenterazine [i-CTZ], in data set [1], the “Half Decay Time” value is 11.42 s, the “Luminescence Intensity for 60 Secs” value stood at 65.3% and the “Relative Luminescence Intensity” value came to 5.0%. In addition, in data set [2], the “Half Decay Time” value is over 60 s, the “Luminescence Intensity for 60 Secs” value came out at 9.8%, the “Relative Luminescence Intensity” value was 3.6% and the “half decay time of the luminescence of the semi-synthetic aequorin” value is “extremely prolonged”.
Consider n-coelenterazine [n-CTZ], for which, in data set [1], the “Half Decay Time” value was found to be 4.71 s, the “Luminescence Intensity for 60 Secs” value was determined as 24.0% and the “Relative Luminescence Intensity” value stood at 3.6%. Moreover, in data set [2], the “Half Decay Time” value came to 44.04 s, the “Luminescence Intensity for 60 Secs” value turned out to be 1.9%, the “Relative Luminescence Intensity” value is 1.0% and the “half decay time of the luminescence of the semi-synthetic aequorin” value is reported as “extremely prolonged”.

B1: pAM2 + X: aequorin expressed with vector pAM2+X; EF hand loop [I] DVNHNGKISLDE (SEQ ID NO: 13); native aequorin reference (protein)
chain: MTMITPSCKLTSDFDNPRWIGRHKHMFNFLDVNHNGKISLDEMVYKASDIVINNLGATPEQAKRHKDAVEAFFGGAGMKYGVETDWPAYIEGWKKLATDELEKYAKNEPTLIRIWGDALFDIVDKDQNGAITLDEWKAYTKAAGIIQSSEDCEETFRVCDIDESGQLDVDEMTRQHLGFWYTMDPACEKLYGGAVP
As for B1, the “Relative Luminescence Activity” value in data set [3] (50 mM calcium solution added, measured 30 seconds, relative to maximum intensity (Imax)) is given as 100.0%. Also, the “Half Decay Time” value in data set [3] (time until luminescence reaches half of maximum intensity) was 1.3 s.

(Values after patent US8816052B2, “Mutant apoprotein of photoprotein with low calcium sensitivity” (JNC Corporation, priority 2011, dated 2014).)
